{"source": "paper PMC5934329", "about": "(Neuropharmacology, 2017)", "key": {"[1]": {"target": "hCB2 receptor (Homo sapiens, UniProt P34972)", "sequence (P34972 whole entry)": "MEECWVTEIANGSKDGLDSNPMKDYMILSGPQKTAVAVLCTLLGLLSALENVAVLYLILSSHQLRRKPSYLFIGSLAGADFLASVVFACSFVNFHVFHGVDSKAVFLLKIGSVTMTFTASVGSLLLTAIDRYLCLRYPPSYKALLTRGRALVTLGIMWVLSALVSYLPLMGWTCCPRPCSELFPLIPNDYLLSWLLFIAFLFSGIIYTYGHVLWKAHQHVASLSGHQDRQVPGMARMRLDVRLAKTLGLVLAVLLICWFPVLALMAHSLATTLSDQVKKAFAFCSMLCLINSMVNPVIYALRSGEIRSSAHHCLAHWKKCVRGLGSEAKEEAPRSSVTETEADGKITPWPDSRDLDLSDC", "experiment": "Agonist-stimulated [35S]GTPγS binding, hCB2 membranes", "settings": "for Emax: read-out: [35S]GTPγS Turnover CB2 Emax"}, "[2]": {"target": "hCB1 receptor (Homo sapiens, UniProt P21554)", "sequence (P21554 whole entry)": "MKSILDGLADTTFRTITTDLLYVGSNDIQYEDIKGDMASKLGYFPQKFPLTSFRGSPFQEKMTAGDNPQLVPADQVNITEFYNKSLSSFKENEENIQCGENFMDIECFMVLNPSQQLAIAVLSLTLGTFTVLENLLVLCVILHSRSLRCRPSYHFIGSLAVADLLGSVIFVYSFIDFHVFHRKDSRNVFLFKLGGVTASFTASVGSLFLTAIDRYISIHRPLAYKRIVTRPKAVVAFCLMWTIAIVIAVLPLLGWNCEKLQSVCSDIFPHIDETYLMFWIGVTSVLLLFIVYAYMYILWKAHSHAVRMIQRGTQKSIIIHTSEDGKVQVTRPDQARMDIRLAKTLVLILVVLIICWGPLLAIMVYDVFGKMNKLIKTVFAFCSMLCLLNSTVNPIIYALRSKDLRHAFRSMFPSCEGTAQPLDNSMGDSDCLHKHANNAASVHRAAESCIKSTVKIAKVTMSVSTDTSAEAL", "experiment": "Agonist-stimulated [35S]GTPγS binding, hCB1 membranes", "settings": "for Emax: read-out: [35S]GTPγS Turnover CB1 Emax"}, "[3]": {"test_system": "male C57BL/6 inbred mice", "experiment": "THC drug discrimination", "assay_type": "in vivo", "settings": "for Effect on response rate: compared to vehicle; for ED50: Mus musculus, ip, read-out: ED50 for substitution in THC discrimination; for ED50 for substitution in THC discrimination: mice trained with 5.6 mg/kg THC i.p., value (95% confidence limits)"}, "[4]": {"target": "human CB1 (hCB1) (Homo sapiens, UniProt P21554)", "sequence (P21554 whole entry)": "as above", "experiment": "[3H]CP55,940 displacement binding at hCB1 membranes"}, "[5]": {"target": "human CB2 (hCB2) (Homo sapiens, UniProt P34972)", "sequence (P34972 whole entry)": "as the sequence (P34972 whole entry) above", "experiment": "[3H]CP55,940 displacement binding at hCB2 membranes"}, "[6]": {"target": "CB1 receptors", "settings": "read-out: CB1 affinity; rat CB1 receptors ref Huffman et al., 2005; cited from earlier work"}}, "note": "“And” between values parts separate entries of the source, which are not always exact repeats. Equal values may be shown once. Read-outs that look alike come from different tables or passages of the source.", "data": [{"smiles": "Cc1ccc(C(=O)c2cn(CCCCCF)c3ccccc23)c2ccccc12", "note": "[MAM-2201, (1-(5-fluoropentyl)-1H-indol-3-yl)(4-methyl-1-naphthalenyl)-methanone]", "values": [{"measurement": "EC50", "setting": "[1]", "result": 1.93, "unit": "nM"}, {"measurement": "Potency for stimulating [35S]GTPγS turnover at CB2 relative to CP55,940", "setting": "[1]; more potent than CP55,940", "result": "approximately 4 fold"}, {"measurement": "Emax", "setting": "[1]", "result": 23.2, "unit": "%"}, {"measurement": "EC50", "setting": "[2]", "result": 36.1, "unit": "nM"}, {"measurement": "Emax", "setting": "[2]", "result": 310, "unit": "%"}, {"measurement": "Substitution for THC in drug discrimination", "setting": "[3]; 0.3 mg/kg", "result": "full substitution"}, {"measurement": "Effect on response rate", "setting": "[3]; 0.3 mg/kg", "result": "reductions in response rates"}, {"measurement": "ED50", "setting": "[3]", "result": 0.11, "unit": "µmol/kg"}, {"measurement": "Ki", "setting": "[4]", "result": 1.86, "unit": "nM"}, {"measurement": "Ki", "setting": "[5]", "result": 0.59, "unit": "nM"}]}, {"smiles": "CN1CCCCC1Cn1cc(C(=O)c2ccccc2I)c2ccccc21", "note": "(stereo not shown) [AM-2233, 1-[(N-methylpiperidin-2-yl)methyl]-3-(2-iodobenzoyl)indole]", "values": [{"measurement": "EC50", "setting": "[1]", "result": 715, "unit": "nM"}, {"measurement": "Emax", "setting": "[1]", "result": 21, "unit": "%"}, {"measurement": "EC50", "setting": "[2]", "result": 213, "unit": "nM"}, {"measurement": "Emax", "setting": "[2]", "result": 144, "unit": "%"}, {"measurement": "ED50", "setting": "[3]", "result": 0.42, "unit": "µmol/kg"}, {"measurement": "Ki", "setting": "[4]", "result": 6.63, "unit": "nM"}, {"measurement": "Ki", "setting": "[5]", "result": 0.48, "unit": "nM"}]}, {"smiles": "CCCCCCC(C)(C)c1ccc(C2CC(O)CCC2CCCO)c(O)c1", "note": "(single isomer, unassigned; (-)) [CP55,940, (-)-cis-3-[2-Hydroxy-4-(1,1-dimethylheptyl)phenyl]-trans-4-(3-hydroxypropyl)cyclohexanol, reference compound]", "values": [{"measurement": "Substitution for THC in drug discrimination", "setting": "[3]; 0.3 mg/kg", "result": "full substitution"}, {"measurement": "Effect on response rate", "setting": "[3]; 0.3 mg/kg", "result": "reductions in response rates"}, {"measurement": "ED50 for substitution in THC discrimination", "setting": "[3]", "result": "0.07 (0.04-0.14) μmol/kg"}]}, {"smiles": "CCCCCn1cc(C(=O)c2ccccc2I)c2ccccc21", "note": "[AM-679, (2-iodophenyl)(1-pentyl-1H-indol-3-yl)methanone]", "values": [{"measurement": "EC50", "setting": "[1]", "result": 19, "unit": "nM"}, {"measurement": "Emax", "setting": "[1]", "result": 31.1, "unit": "%"}, {"measurement": "EC50", "setting": "[2]", "result": 881, "unit": "nM"}, {"measurement": "Emax", "setting": "[2]", "result": 132, "unit": "%"}, {"measurement": "ED50", "setting": "[3]", "result": 5.8, "unit": "µmol/kg"}, {"measurement": "Ki", "setting": "[4]", "result": 39.6, "unit": "nM"}, {"measurement": "Ki", "setting": "[5]", "result": 2.1, "unit": "nM"}]}, {"smiles": "CCc1ccc(C(=O)c2cn(CCCCCF)c3ccccc23)c2ccccc12", "note": "[EAM-2201, (4-ethyl-1-naphthalenyl)[1-(5-fluoropentyl)-1H-indol-3-yl]-methanone]", "values": [{"measurement": "EC50", "setting": "[1]", "result": 91.9, "unit": "nM"}, {"measurement": "Emax", "setting": "[1]", "result": 40.2, "unit": "%"}, {"measurement": "EC50", "setting": "[2]", "result": 46.8, "unit": "nM"}, {"measurement": "Emax", "setting": "[2]", "result": 270, "unit": "%"}, {"measurement": "ED50", "setting": "[3]", "result": 0.04, "unit": "µmol/kg"}, {"measurement": "Effect on response rate", "setting": "[3]; across the dose range tested", "result": "no doses produced significant differences from vehicle"}, {"measurement": "Ki", "setting": "[4]", "result": 0.41, "unit": "nM"}, {"measurement": "Ki", "setting": "[5]", "result": 0.38, "unit": "nM"}]}, {"smiles": "CCCCCc1cc(O)c2c(c1)OC(C)(C)[C@@H]1CCC(C)=C[C@@H]21", "note": "[THC, Δ^9-tetrahydrocannabinol, reference compound]", "values": [{"measurement": "Effect on response rate", "setting": "[3]; across the dose range tested", "result": "did not alter response rates"}, {"measurement": "ED50 for substitution in THC discrimination", "setting": "[3]", "result": "4.96 (3.41-7.21) μmol/kg"}]}, {"smiles": "CCCCCn1cc(C(=O)c2ccc(CC)c3ccccc23)c2ccccc21", "note": "[JWH-210, 4-ethylnaphthalen-1-yl-(1-pentylindol-3-yl)methanone]", "values": [{"measurement": "EC50", "setting": "[1]", "result": 51, "unit": "nM"}, {"measurement": "Emax", "setting": "[1]", "result": 43.6, "unit": "%"}, {"measurement": "EC50", "setting": "[2]", "result": 116, "unit": "nM"}, {"measurement": "Emax", "setting": "[2]", "result": 287, "unit": "%"}, {"measurement": "ED50", "setting": "[3]", "result": 0.33, "unit": "µmol/kg"}, {"measurement": "Ki", "setting": "[5]", "result": 0.94, "unit": "nM"}]}, {"smiles": "CN1CCCC[C@@H]1Cn1cc(C(=O)c2cccc3ccccc23)c2ccccc21", "note": "[AM-1220, (R)-(1-((1-methylpiperidin-2-yl)methyl)-1H-indol-3-yl)(naphthalen-1-yl)methanone]", "values": [{"measurement": "[35S]GTPγS Turnover CB2 Emax", "setting": "[1]; % maximal increase over basal, hCB2, value (SEM)", "result": "Not determinable"}, {"measurement": "[35S]GTPγS Turnover CB2 EC50", "setting": "[1]; hCB2 membranes, value (SEM)", "result": "Not determinable"}, {"measurement": "Emax", "setting": "[2]", "result": 132, "unit": "%"}, {"measurement": "ED50", "setting": "[3]", "result": 0.26, "unit": "µmol/kg"}, {"measurement": "Ki", "setting": "[5]", "result": 0.26, "unit": "nM"}]}, {"smiles": "N#CCCCCn1cc(C(=O)c2cccc3ccccc23)c2ccccc21", "note": "[AM-2232, 5-(3-(1-naphthoyl)-1H-indol-1-yl)pentanenitrile]", "values": [{"measurement": "EC50", "setting": "[1]", "result": 406, "unit": "nM"}, {"measurement": "Emax", "setting": "[1]", "result": 31.3, "unit": "%"}, {"measurement": "EC50", "setting": "[2]", "result": 833, "unit": "nM"}, {"measurement": "Emax", "setting": "[2]", "result": 204, "unit": "%"}, {"measurement": "Substitution for THC in drug discrimination", "setting": "[3]; 1.0 mg/kg", "result": "full substitution"}, {"measurement": "Effect on response rate", "setting": "[3]; 1.0 mg/kg", "result": "reductions in response rates"}, {"measurement": "ED50", "setting": "[3]", "result": 0.54, "unit": "µmol/kg"}, {"measurement": "Ki", "setting": "[4]", "result": 14.5, "unit": "nM"}, {"measurement": "Ki", "setting": "[5]", "result": 11.2, "unit": "nM"}]}, {"smiles": "CCCCCn1cc(C(=O)Cc2ccccc2C)c2ccccc21", "note": "[JWH-251, 2-(2-methylphenyl)-1-(1-pentyl-1H-indol-3-yl)ethenone]", "values": [{"measurement": "EC50", "setting": "[1]; read-out: [35S]GTPγS Turnover CB2 EC50, hCB2 membranes, value (SEM)", "result": 1520, "unit": "nM"}, {"measurement": "[35S]GTPγS Turnover CB1 Emax", "setting": "[2]; % maximal increase over basal, hCB1, value (SEM)", "result": "227.6 (31.6) 3%"}, {"measurement": "EC50", "setting": "[2]; read-out: [35S]GTPγS Turnover CB1 EC50, hCB1 membranes, value (SEM)", "result": 918, "unit": "nM"}, {"measurement": "ED50 for substitution in THC discrimination", "setting": "[3]", "result": "4.07 (3.11-5.31) μmol/kg"}, {"measurement": "Ki", "setting": "[4]; read-out: CB1 Ki, [3H]CP55,940 displacement, hCB1, value (SEM)", "result": "16 nM and 16.2 nM"}, {"measurement": "Ki", "setting": "[5]; read-out: CB2 Ki, [3H]CP55,940 displacement, hCB2, value (SEM)", "result": "15 nM and 15.1 nM"}, {"measurement": "Ki", "setting": "[6]", "result": "29 ± 3", "unit": "nM"}]}]}
